Reference: patent US20250090541A1, “Methods for Treating Neurodegenerative Disorders” (Praetego Inc, priority 2022, published 2025)

Legend:
Type in all cases: in vivo
human tau mice [1] = test: Barnes maze long-term memory, human tau mice; settings: by week 23 of treatment (between week 19 and 23), male and female combined
Source text: (§1) The human tau mouse is a model of sporadic dementia that expresses human non-mutant tau (6 isoforms) in the absence of endogenous mouse tau. The model develops age-associated pathology, with hyperphosphorylated tau detected in cell bodies and dendrites by 3 months of age (Andorfer et al., 2003; J Neurochem 86, 582-590, doi:10.1046/j.1471-4159.2003.01879.x). These mice display abnormal spatial learning by 6 months of age and impaired learning in the Morris water maze with memory loss by 12 months of age, as well as memory deficits in the Barnes maze by 6 months of age (Marquez et al, 2021).
(§2) Female and male human tau mice (Jax #005491) were treated daily for 25 weeks with PTG-630 trihydrochloride at 1 and 5 mg/kg in drinking water starting at 10 weeks of age (before cognitive deficits appear).
(§3) Learning and memory were assessed using the Barnes maze test and the object recognition test at 6-8, 12-13, 18-19 and 24-25 weeks. Corneal nerves were imaged by corneal confocal microscopy (CCM) at week 6, 9, 12, 18 and 25. Data represent male and female results combined, mean±sem.
Using the Barnes maze test, long-term memory was assessed between week 13 and 19 and between week 19 and 23 of treatment (FIG. 1A, B).

[2] = test system: carboxymethyl Lysine (CML); test: Carboxymethyl lysine (CML) by LC-MS/MS in terminal plasma and brain cortex, htau mice
Procedure: as §2
Terminal plasma and brain cortex were also analyzed for carboxymethyl Lysine (CML), a prominent advanced glycation end-product (AGE), by an LC-MS/MS quantitative chemical analysis method. PTG-630 and PTG-670 were developed as potent AGE inhibitors and tested for amelioration of PNS and CNS damage due to the extensive work that implicated AGE formation as a causative factor in the development of neurodegenerative pathologies.

human tau mice [3] = test: Tactile allodynia (manual von Frey filaments), human tau mice; settings: 5 mg/kg, after 14 weeks of treatment
Procedure: as §2
Tactile and thermal responses, measures of associated damage to the peripheral nervous system (PNS), were assessed at 8, 14, 18 and 24 weeks. hTau mice developed significant tactile allodynia measured with manual von Frey filaments at the 14 weeks time point (FIG. 4).

human tau mice [4] = test: Object recognition test, human tau mice
Source text: as §1, §2, §3

## Cc1ncc(CN2CCOCC2)c(-c2ncc[nH]2)c1O [PTG-630, 4-(1H-imidazol-2-yl)-2-methyl-5-(morpholinomethyl)pyridin-3-ol]
Human tau mice [1]
  long-term memory impairment in Barnes maze: significantly prevented
[2]; female htau mice, 5 mg/kg
  CML levels in cortex: significantly (p<0.05) reduced
[2]; male
  CML levels in cortex: No significant difference
[2]; male and female
  CML levels in plasma: No significant difference
Human tau mice [3]
  tactile allodynia: significantly ameliorated
Human tau mice [4]; 1 mg/kg in drinking water
  short term episodic memory deficits in Object recognition test: partially ameliorated
Human tau mice [4]; 5 mg/kg in drinking water for 17 weeks
  short term episodic memory deficits in Object recognition test: significantly alleviated
Human tau mice [4]; FIG. 2 legend, dose not stated
  short-term episodic memory (recognition index): partially prevented
